From patent US10800789B2, “Antiviral compounds” (Gilead Pharmasset LLC, priority 2012, dated 2020)
Where two headings read alike, the source gives them in different places.

Legend:
[1] = test system: NS5A chimeric genotype 2a JFH-1 replicon with genotype 2b MD2b-1 strain NS5A gene (M31 present); assay: Replicon assay, genotype 2b NS5A chimera; format: cell-based, HCV; conditions: Hepatitis C virus
How it was run: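 EC50 was fitted by non-linear regression to Renilla luciferase signal after 72 h of exposure to 3-fold serially diluted compound (10 mM DMSO stocks). Controls were DMSO (none) and ITMN-191 above 100×EC50 (full). Chimeric 2a replicons were used either stable or transiently transfected into Huh-Lunet cells.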

[2] = test system: NS5A chimeric genotype 2a JFH-1 replicon with genotype 2a J6 strain NS5A gene (M31 present); assay: Replicon assay, genotype 2a J6 NS5A chimera; format: cell-based, HCV; conditions: Hepatitis C virus
How it was run: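 72 h compound exposure (3-fold dilutions from 10 mM DMSO stocks) of replicon cells: stable dicistronic RLuc 1a H77, 1b Con1, 2a JFH-1 (NS5A L31); J6-NS5A chimera in JFH-1 (M31), transient in Huh-Lunet or stable. Renilla luciferase read-out, non-linear regression → EC50. DMSO negative control.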

[3] = test system: stable HCV 1a RLuc replicon cells (dicistronic genotype 1a H77 replicon); assay: Renilla luciferase HCV replicon reporter assay, genotype 1a; format: cell-based; conditions: Hepatitis C virus, 72 h, stable 1a H77 RLuc replicon cells
How it was run: (§1)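 First, 3-fold serial dilutions of compound went onto replicon cells, DMSO serving as no-inhibition control and ITMN-191 at >100×EC50 as positive control. Next came 72 h incubation, lysis and Renilla luciferase measurement. Finally, EC50 was calculated by non-linear regression; replicons covered genotypes 1a H77, 1b Con1, 2a JFH-1 (L31) and J6-NS5A chimera (M31).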

[4] = test system: stable HCV 2a JFH-1 Rluc replicon cells (L31 present in NS5A); assay: Renilla luciferase HCV replicon reporter assay, genotype 2a JFH-1; format: cell-based; conditions: Hepatitis C virus
How it was run: as §1

[5] = test system: stable HCV 1b RLuc replicon cells (dicistronic genotype 1b Con1 replicon); assay: Renilla luciferase HCV replicon reporter assay, genotype 1b; format: cell-based; conditions: Hepatitis C virus, 72 h, stable 1b Con1 RLuc replicon cells, 72 hours; read-out: 1b
How it was run: as §1

[6] = test system: NS5A chimeric genotype 1b Con1 replicon with genotype 3a S52 strain NS5A gene; assay: Replicon assay, genotype 3a NS5A chimera; format: cell-based, HCV; conditions: Hepatitis C virus
[7] = test system: NS5A chimeric genotype 1b Con1 replicon with genotype 4a ED43 strain NS5A gene; assay: Replicon assay, genotype 4a NS5A chimera; format: cell-based, HCV; conditions: Hepatitis C virus
[8] = 2BS, read-out: 2b (s), stably replicating replicon cells (s), activity range
[9] = read-out: 2b (s) (nM), genotype 2b MD2b-1 NS5A chimeric replicon (M31), stably replicating replicon cells (s)
[10] = read-out: 2a J6 (t) (nM), genotype 2a J6 NS5A chimeric replicon (M31), transiently transfected (t) into Huh-Lunet cells
[11] = read-out: 2a J6 (t), transiently transfected (t) into Huh-Lunet cells, activity range
[12] = read-out: 2a JFH (nM), genotype 2a JFH-1 replicon (L31 in NS5A), stable cells
[13] = read-out: 2a JFH, stable 2a JFH-1 Rluc replicon cells, L31 in NS5A, activity range
[14] = read-out: 3a (s) (nM), genotype 3a NS5A chimeric replicon, stable replicon cells (s)
[15] = read-out: 3a (s), (s), activity range
[16] = read-out: 4a (s) (nM), genotype 4a NS5A chimeric replicon, stable replicon cells (s)
[17] = read-out: 4a (s), (s), activity range

SMILES | EC50 [1, 8] | EC50 [1, 9] | EC50 [2, 10] | EC50 [2, 11] | EC50 [3] | EC50 ([3]; activity range) | EC50 [4, 12] | EC50 [4, 13] | EC50 [5] | EC50 [6, 14] | EC50 [6, 15] | EC50 [7, 16] | EC50 [7, 17]
COC(=O)N[C@@H](C)C(=O)N1[C@@H](C)CC[C@H]1c1ncc(-c2ccc3c(c2)COc2cc4c(ccc5nc([C@@H]6CC[C@H](C)N6C(=O)[C@@H](NC(=O)OC)C(C)C)[nH]c54)cc2-3)[nH]1 [HL] | 1 to 44 nM | 3.72 nM | 1.43 nM | 1 to 44 nM | 0.017 nM | < 0.1 nM | 0.019 nM | < 0.1 nM | 0.021 nM | 0.127 nM | 0.1 to 0.999 nM | 0.02 nM | < 0.1 nM
COC(=O)N[C@H](C(=O)N1C(c2ncc(-c3ccc4c(c3)COc3cc5c(ccc6nc(C7C[C@H](C)CN7C(=O)[C@@H](NC(=O)OC)C(C)(C)C)[nH]c65)cc3-4)[nH]2)CC[C@@H]1C)C(C)C (some centres unmarked) [HN] | 1 to 44 nM | 2.86 nM | 1.1 nM | 1 to 44 nM | 0.01 nM | < 0.1 nM | 0.018 nM | < 0.1 nM | 0.012 nM | 0.282 nM | 0.1 to 0.999 nM | 0.018 nM | < 0.1 nM
COC(=O)N[C@H](C(=O)N1[C@@H](C)CC[C@H]1c1nc2ccc3cc4c(cc3c2[nH]1)OCc1cc(-c2cnc([C@@H]3[C@@H]5C[C@@H]5CN3C(=O)[C@@H](NC(=O)OC)C3CCOCC3)[nH]2)ccc1-4)C(C)C [HO] | 0.1 to 0.999 nM | 0.639 nM | 0.207 nM | 0.1 to 0.999 nM | 0.059 nM | < 0.1 nM | 0.022 nM | < 0.1 nM | 0.074 nM | 0.136 nM | 0.1 to 0.999 nM | 0.04 nM | < 0.1 nM
COC(=O)N[C@H](C(=O)N1[C@@H](C)CC[C@H]1c1nc2ccc3cc4c(cc3c2[nH]1)OCc1cc(-c2cnc([C@@H]3[C@@H]5C[C@@H]5CN3C(=O)[C@@H](NC(=O)OC)[C@@H](C)OC)[nH]2)ccc1-4)C(C)C [HP] | 1 to 44 nM | 1.02 nM | 0.22 nM | 0.1 to 0.999 nM | 0.019 nM | < 0.1 nM | 0.014 nM | < 0.1 nM | 0.026 nM | 0.079 nM | < 0.1 nM | 0.023 nM | < 0.1 nM
COC(=O)N[C@H](C(=O)N1C[C@H]2C[C@H]2[C@H]1c1ncc(-c2ccc3c(c2)COc2cc4c(ccc5nc([C@@H]6CC[C@H](C)N6C(=O)[C@@H](NC(=O)OC)C(C)C)[nH]c54)cc2-3)[nH]1)C(C)C [HR] | 1 to 44 nM | 2.18 nM | 1.12 nM | 1 to 44 nM | 0.015 nM | < 0.1 nM | 0.022 nM | < 0.1 nM | 0.024 nM | 0.047 nM | < 0.1 nM | 0.015 nM | < 0.1 nM
COC(=O)N[C@H](C(=O)N1C[C@@H](F)C[C@H]1c1ncc(-c2ccc3c(c2)COc2cc4c(ccc5nc([C@@H]6CC[C@H](C)N6C(=O)[C@@H](NC(=O)OC)C(C)C)[nH]c54)cc2-3)[nH]1)C(C)C [HS] | 1 to 44 nM | 3.37 nM | 4.14 nM | 1 to 44 nM | 0.011 nM | < 0.1 nM | 0.022 nM | < 0.1 nM | 0.023 nM | 0.082 nM | < 0.1 nM | 0.008 nM | < 0.1 nM
COC(=O)N[C@H](C(=O)N1[C@@H](C)CC[C@H]1c1nc2ccc3cc4c(cc3c2[nH]1)OCc1cc(-c2cnc([C@@H]3C[C@H](F)CN3C(=O)[C@@H](NC(=O)OC)C3CCOCC3)[nH]2)ccc1-4)C(C)C [HT] | 1 to 44 nM | 1.35 nM | 0.778 nM | 0.1 to 0.999 nM | 0.07 nM | < 0.1 nM | 0.051 nM | < 0.1 nM | 0.11 nM | 0.075 nM | < 0.1 nM | 0.03 nM | < 0.1 nM
COC(=O)N[C@H](C(=O)N1[C@@H](C)CC[C@H]1c1nc2ccc3cc4c(cc3c2[nH]1)OCc1cc(-c2cnc([C@@H]3C[C@H](F)CN3C(=O)[C@@H](NC(=O)OC)[C@@H](C)OC)[nH]2)ccc1-4)C(C)C [HU] | 1 to 44 nM | 3.56 nM | 3.17 nM | 1 to 44 nM | 0.016 nM | < 0.1 nM | 0.026 nM | < 0.1 nM | 0.055 nM | 0.083 nM | < 0.1 nM | 0.012 nM | < 0.1 nM
COC(=O)N[C@H](C(=O)N1[C@@H](C)CC[C@H]1c1ncc(-c2ccc3c(c2)COc2cc4c(ccc5nc([C@@H]6CC[C@H](C)N6C(=O)[C@@H](NC(=O)OC(C)(C)C)C(C)(C)O)[nH]c54)cc2-3)[nH]1)C(C)C [HV] | > 44 nM | ≥ 44.4 nM | ≥ 44.4 nM | > 44 nM | 3.65 nM | 1 to 44 nM | 1.87 nM | 1 to 44 nM | 0.091 nM | 12.6 nM | 1 to 44 nM | 1.27 nM | 1 to 44 nM
COC(=O)N[C@H](C(=O)N1[C@@H](C)CC[C@H]1c1ncc(-c2ccc3c(c2)COc2cc4c(ccc5nc([C@@H]6CC[C@H](C)N6C(=O)[C@@H](NC(=O)OC)[C@H](C)O)[nH]c54)cc2-3)[nH]1)C(C)C [HW] | 1 to 44 nM | 1.79 nM | 1.1 nM | 1 to 44 nM | 0.056 nM | < 0.1 nM | 0.047 nM | < 0.1 nM | 0.066 nM | 0.085 nM | < 0.1 nM | 0.021 nM | < 0.1 nM
COC(=O)N[C@H](C(=O)N1C[C@@H](C)C[C@H]1c1nc2ccc3cc4c(cc3c2[nH]1)OCc1cc(-c2cnc([C@@H]3CC[C@H](C)N3C(=O)[C@@H](NC(=O)OC)C(C)(C)C)[nH]2)ccc1-4)C(C)C [HX] | 1 to 44 nM | 2.92 nM | 3.28 nM | 1 to 44 nM | 0.011 nM | < 0.1 nM | 0.027 nM | < 0.1 nM | 0.02 nM | 0.266 nM | 0.1 to 0.999 nM | 0.014 nM | < 0.1 nM
